The record followed here is ChEMBL document CHEMBL1667768, “Compounds containing 2-substituted imidazole ring for treatment against human African trypanosomiasis” (Bioorg Med Chem Lett, 2011).

The subject of series [1] is Trypanosoma brucei rhodesiense. The series is described as follows: Antimicrobial activity against Trypanosoma brucei rhodesiense after 48 hrs by proliferation assay. The series is classed as functional, organism-based.
The test system of series [2] is L6. As to the kind of experiment: Cytotoxicity against rat L6 cells after 72 hrs by SRB assay. To be noted: L6, 72 h. The series is classed as cell-based.
Series [3] is described as follows: Aqueous solubility of the compound at pH 1.5 at 25 degC. It is filed as physicochemical.
Series [4] can be described thus: Aqueous solubility of the compound at pH 7.5 at 25 degC. It is filed as physicochemical.

In brackets after ≈: the same amount, converted by molar mass.

The IC50 is the point on the concentration scale where inhibition reaches its midpoint. A higher IC50 goes with weaker potency in that assay. For orientation: solubility means the dissolved amount per volume that the medium holds. High values mean much dissolved substance, low ones little dissolved substance. As for `Cn1c([N+](=O)[O-])cnc1COc1ccncc1`, the figures for the IC50 in series [1] and in series [2] were greater than 30 µM and greater than 400 µM, respectively. In addition, the solubility in series [3] came to 4.8 µM (≈ 1.12 µg/mL); in series [4], 2.7 µM (≈ 0.632 µg/mL).
The matching figures for `CSc1ccc(OCc2nc([N+](=O)[O-])cn2C)cc1`: greater than 30 µM, greater than 400 µM, 5.1 µM (≈ 1.42 µg/mL) and 2.5 µM (≈ 0.698 µg/mL).
On to `Cn1c([N+](=O)[O-])cnc1COc1ccccc1`, for which the IC50 in series [1] is greater than 30 µM; in series [2] it was greater than 400 µM. The solubility in series [3] is 5.7 µM (≈ 1.33 µg/mL); in series [4] it was 2.1 µM (≈ 0.49 µg/mL).
The matching figures for `CSc1ccc(OCc2nc(Br)c(Cl)n2C)cc1`: greater than 30 µM, greater than 400 µM, 37.5 µM (≈ 13 µg/mL) and 21.7 µM (≈ 7.54 µg/mL).
For `CSc1ccc(OCc2nc(Cl)c(Br)n2C)cc1`, in that order: greater than 30 µM, greater than 400 µM, 35.8 µM (≈ 12.4 µg/mL) and 24.9 µM (≈ 8.66 µg/mL).
For the compound `CSc1ccc(OCc2nc(Cl)c(Cl)n2C)cc1`, the half-inhibitory concentration (IC50) was greater than 30 µM in series [1] and greater than 400 µM in series [2]. For the same compound, the solubility in series [3] amounted to 45.5 µM (≈ 13.8 µg/mL); in series [4], 25.5 µM (≈ 7.73 µg/mL).
In the case of `CSc1ccc(OCc2ncc([N+](=O)[O-])n2C)cc1` [FEXINIDAZOLE], the IC50 was found to be 0.7 µM in series [1] and 377 µM in series [2]. The solubility in series [3] is 5.5 µM (≈ 1.54 µg/mL); in series [4], 2.5 µM (≈ 0.698 µg/mL).
Take `CSc1ccc(OCc2ncc(Cl)n2C)cc1`: the IC50 is greater than 30 µM in series [1] and greater than 400 µM in series [2]. In addition, the solubility in series [3] stood at 21 µM (≈ 5.64 µg/mL); in series [4] it was 8.7 µM (≈ 2.34 µg/mL).
For `CSc1ccc(OCc2nc(Br)c(Br)n2C)cc1`, in that order: greater than 30 µM, greater than 400 µM, 41.2 µM (≈ 16.2 µg/mL) and 24.5 µM (≈ 9.61 µg/mL).
Consider `CSc1ccc(OCc2ncc(Br)n2C)cc1`, for which the IC50 in series [1] is greater than 30 µM; in series [2], greater than 400 µM. The solubility in series [3] amounted to 18.5 µM (≈ 5.79 µg/mL); in series [4], 8.5 µM (≈ 2.66 µg/mL).
Take `CSc1ccc(OCc2nc(Cl)c([N+](=O)[O-])n2C)cc1`: the values for the IC50 in series [1] and in series [2] were 0.25 µM and 0.2 µM, respectively. Also, the solubility came to 17.1 µM (≈ 5.37 µg/mL) in series [3] and 5.9 µM (≈ 1.85 µg/mL) in series [4].
The matching figures for `CSc1ccc(OCc2nc(Br)c([N+](=O)[O-])n2C)cc1`: 0.55 µM, 0.8 µM, 16.7 µM (≈ 5.98 µg/mL) and 5.8 µM (≈ 2.08 µg/mL).
The matching figures for `CCc1cc(OCc2ncc([N+](=O)[O-])n2C)ccn1`: 25 µM, 243 µM, 5.9 µM (≈ 1.55 µg/mL) and 3.1 µM (≈ 0.813 µg/mL).
For `Cc1cc(OCc2ncc([N+](=O)[O-])n2C)ccn1`, in that order: 27 µM, 286 µM, 4.3 µM (≈ 1.07 µg/mL) and 2.2 µM (≈ 0.546 µg/mL).
For the compound `CSc1ccc(OCc2ncc(S(=O)(=O)O)n2C)cc1`, the IC50 in series [1] was greater than 30 µM; in series [2], greater than 400 µM. The solubility in series [3] was 25.4 µM (≈ 7.99 µg/mL); in series [4], 8.2 µM (≈ 2.58 µg/mL).
As for `CSc1ccc(OCc2nc(S(=O)(=O)O)c([N+](=O)[O-])n2C)cc1`, the IC50 in series [1] was 0.37 µM; in series [2], 0.2 µM. Also, the solubility in series [3] came out at 22.8 µM (≈ 8.19 µg/mL); in series [4], 7.9 µM (≈ 2.84 µg/mL).
`Cn1c([N+](=O)[O-])cnc1COc1ccnc(N2CCNCC2)c1`: the IC50 stood at 0.67 µM in series [1] and 255 µM in series [2]. Moreover, the solubility in series [3] came to 5.6 µM (≈ 1.78 µg/mL); in series [4] it was 3.5 µM (≈ 1.11 µg/mL).
